Data reported in PubChem BioAssay AID330 (DTP/NCI, 2004).
Values joined by “and” are separate entries in the source; they are usually repeats but may differ in a detail not shown here. Equal entries are not always repeated. Toxic doses and inconclusive results are not listed. How the source made its calls: active means survival T/C of 150% or more; inactive means T/C below 125% in these data.

System: P388 leukemia ip, CD2F1 mice, survival T/C
Assay: NCI In Vivo Anticancer Drug Screen. Data for tumor model P388 Leukemia (intraperitoneal) in CD2F1 (CDF1) mice
Settings: endpoint: median survival time, higher = longer survival
Method in brief: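 Mice carrying the transplanted tumor received test compound or vehicle. Survival was recorded in each group, and the value is the treated-group measurement divided by that of the vehicle-treated control group.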

Measured: T/C

C=C1C(=O)O[C@H]2CC(C)C3C[C@@H](O)OC(O)[C@]3(C)C[C@@H]12 (some centres undefined)
inactive: dose: 2.38 mg/kg/injection, schedule: Q01DX005 (ip), vehicle: Klucel (hydroxypropylcellulose) (HPC) 101 % of control | dose: 4.75 mg/kg/injection, schedule: Q01DX005 (ip), vehicle: Klucel (hydroxypropylcellulose) (HPC) 111 % of control | dose: 9.5 mg/kg/injection, schedule: Q01DX005 (ip), vehicle: Klucel (hydroxypropylcellulose) (HPC) 102 % of control

O=C1NC(=O)C2CCC12 (centres undefined)
inactive: dose: 50.0 mg/kg/injection, schedule: Q01DX009 (ip), vehicle: saline with Tween-80 100 % of control | dose: 100.0 mg/kg/injection, schedule: Q01DX009 (ip), vehicle: saline with Tween-80 100 % of control | dose: 200.0 mg/kg/injection, schedule: Q01DX009 (ip), vehicle: saline with Tween-80 100 % of control

Cn1c2nc(-[n+]3cccc(CO)c3)nc-2c([O-])n(C)c1=O
inactive: dose: 100.0 mg/kg/injection, schedule: Q04DX003 (ip), vehicle: saline 103 % of control | dose: 200.0 mg/kg/injection, schedule: Q04DX003 (ip), vehicle: saline 99 % of control | dose: 400.0 mg/kg/injection, schedule: Q04DX003 (ip), vehicle: saline 103 % of control

Cc1[nH]c(=O)[nH]c(=O)c1/C=C/C(=O)NC(CO)CS(=O)Cc1ccccc1 (centres undefined)
inactive: dose: 0.07 mg/kg/injection, schedule: Q01DX009 (ip), vehicle: water 100 % of control | dose: 0.15 mg/kg/injection, schedule: Q01DX009 (ip), vehicle: water 102 % of control | dose: 0.3 mg/kg/injection, schedule: Q01DX009 (ip), vehicle: water 100 % of control | dose: 0.6 mg/kg/injection, schedule: Q01DX009 (ip), vehicle: water 103 % of control | dose: 2.0 mg/kg/injection, schedule: Q01DX009 (ip), vehicle: other 114 % of control | dose: 4.0 mg/kg/injection, schedule: Q01DX009 (ip), vehicle: other 118 % of control | dose: 8.0 mg/kg/injection, schedule: Q01DX009 (ip), vehicle: other 122 % of control | dose: 16.0 mg/kg/injection, schedule: Q01DX009 (ip), vehicle: other 118 % of control | dose: 32.0 mg/kg/injection, schedule: Q01DX009 (ip), vehicle: other 99 % of control and 108 % of control | dose: 64.0 mg/kg/injection, schedule: Q01DX009 (ip), vehicle: other 103 % of control | dose: 128.0 mg/kg/injection, schedule: Q01DX009 (ip), vehicle: other 98 % of control | dose: 200.0 mg/kg/injection, schedule: Q01DX009 (ip), vehicle: other 92 % of control | dose: 256.0 mg/kg/injection, schedule: Q01DX009 (ip), vehicle: other 100 % of control | dose: 300.0 mg/kg/injection, schedule: Q01DX009 (ip), vehicle: other 90 % of control | dose: 400.0 mg/kg/injection, schedule: Q01DX009 (ip), vehicle: other 93 % of control

COc1cc(C2c3cc4c(cc3C3OC(=O)C2C3CO)OCO4)cc(OC)c1OC (centres undefined)
inactive: dose: 0.12 mg/kg/injection, schedule: Q01DX009 (ip), vehicle: Klucel (hydroxypropylcellulose) (HPC) 117 % of control | dose: 0.25 mg/kg/injection, schedule: Q01DX009 (ip), vehicle: Klucel (hydroxypropylcellulose) (HPC) 115 % of control | dose: 0.5 mg/kg/injection, schedule: Q01DX009 (ip), vehicle: Klucel (hydroxypropylcellulose) (HPC) 120 % of control | dose: 3.12 mg/kg/injection, schedule: Q01DX009 (ip), vehicle: Klucel (hydroxypropylcellulose) (HPC) 118 % of control | dose: 6.25 mg/kg/injection, schedule: Q01DX009 (ip), vehicle: Klucel (hydroxypropylcellulose) (HPC) 118 % of control

CNC1CC2OC(C)(C1OC)n1c3ccccc3c3c4c(c5c6ccccc6n2c5c31)C(=O)NC4 (centres undefined)
inactive: dose: 0.75 mg/kg/injection, schedule: Q01DX005 (ip), vehicle: water 120 % of control | dose: 1.5 mg/kg/injection, schedule: Q01DX005 (ip), vehicle: water 90 % of control

CCN(CC)c1nc(Cl)nc(Nc2ccc3cc(-c4ccccc4)c(=O)oc3c2)n1
inactive: dose: 50.0 mg/kg/injection, schedule: Q01DX005 (ip), vehicle: Klucel (hydroxypropylcellulose) (HPC) 98 % of control | dose: 100.0 mg/kg/injection, schedule: Q01DX005 (ip), vehicle: Klucel (hydroxypropylcellulose) (HPC) 95 % of control | dose: 200.0 mg/kg/injection, schedule: Q01DX005 (ip), vehicle: Klucel (hydroxypropylcellulose) (HPC) 104 % of control
